# Assay results: patent US8362235B2, “Carboxamide compounds and methods for using the same” (Rigel Pharmaceuticals, Inc., priority 2009, dated 2013)
# Molecular target: AMPK
# Test: AMPK activation, enzyme-linked immunosorbent assay
# Conditions: ELISA
# Method: Compounds 1-8 were assayed for their ability to activate AMPK using an enzyme-linked immunosorbent assay.
row,Structure (SMILES),EC50 [nM]
1,"N#Cc1ccc(CN2CC[C@H](NC(=O)c3ccc(C(=O)N4CCN(c5ccc(Cl)cc5)CC4)cn3)C2)cc1 [Compound 6, (S)-5-(4-(4-chlorophenyl)piperazine-1-carbonyl)-N-(1-(4-cyanobenzyl)pyrrolidin-3-yl)picolinamide]",500 to 1000
2,"N#Cc1ccc(CN2CCC(NC(=O)c3ccc(C(=O)N4CCN(Cc5ccc(C(F)(F)F)cc5)CC4)cn3)CC2)cc1 [Compound 3, N-(1-(4-cyanobenzyl)piperidin-4-yl)-5-(4-(4-(trifluoromethyl)benzyl)piperazine-1-carbonyl)picolinamide]",< 500
3,"O=C(NC1CCN(Cc2ccc(C(F)(F)F)cc2)C1)c1ccc(C(=O)N2CCN(c3ccc(Cl)cc3)CC2)cn1 (stereo not shown) [Compound 8, 5-(4-(4-chlorophenyl)piperazine-1-carbonyl)-N-(1-(4-(trifluoromethyl)benzyl)pyrrolidin-3-yl)picolinamide]",1000 to 5000
4,"N#Cc1ccc(CN2CCC(NC(=O)c3ccc(C(=O)N4CCN(Cc5ccc(F)cc5)CC4)cn3)CC2)cc1 [Compound 2, N-(1-(4-cyanobenzyl)piperidin-4-yl)-5-(4-(4-fluorobenzyl)piperazine-1-carbonyl)picolinamide]",< 500
